Measurements published in PubChem BioAssay AID1963833 (Molecular Pharmacology Branch, DTP, NCI, 2024).
Values joined by “and” are separate entries in the source; they are usually repeats but may differ in a detail not shown here. Equal values may be shown once.

Test system: 883617-216-R-J1-PDC complex spheroid viability
Test: Anticancer human tumor 883617-216-R-J1-PDC patient-derived bladder carcinoma cell line growth inhibition [POLQ]
Conditions: for viability, T/C: stronger effect = lower value; active means viability on the fitted dose curve at most 10% of control; inactive means the rest
Experimental: Multicellular complex tumor spheroid response to Polymerase (POL) inhibitors (novobiocin, ART-558, RP6685) in combination with a variety of drugs and investigational agents in selected tumor cell lines
The POL inhibitors (novobiocin, ART-558, and RP6685) were evaluated both individually and in combination with standard of care and investigational anticancer small molecules within a complex spheroid model of solid tumors. . Complex spheroids include a stromal component modeled by human endothelial cells (HUVEC) and fibroblasts modeled by human mesenchymal stem cells (MSCs). The concentration ranges selected for each drug and investigational agent were based upon clinically achievable concentrations if the clinical Cmax of the agent was known.
Compounds. The drugs and investigational agents: novobiocin (NSC847541), ART-558 (NSC835418), RP-6685 (NSC848927), peposertib (NSC802822), ceralasertib (NSC780249), elimusertib (NSC800525), camonsertib (NSC841442), AZD-1390 (NSC803789), olaparib (NSC753686), talazoparib (NSC767125), rucaparib (NSC756644), sotorasib (NSC818433), MRTX-1133 (NSC836407), SN-38 (NSC673596), topotecan (NSC609699), epotoside (NSC141540), doxorubicin (NSC123127), gemcitabine (NSC613327), 5-fluorouracil (NSC19893), paclitaxel (NSC125973), vemurafenib (NSC761431), MSA-2 (NSC828583), SN-011 (NSC837082), adavosertib (NSC754352), prexasertib (NSC758257), carboplatin (NSC241240) and oxaliplatin (NSC266046), were obtained from the National Cancer Institute (NCI) Developmental Therapeutics Program Chemical Repository (21). The FDA-approved anticancer drug set is available from the Developmental Therapeutics Program at https://dtp.cancer.gov/organization/dscb/obtaining/. […] The stock solutions were prepared in dimethyl sulfoxide (DMSO, Sigma-Aldrich, St. Louis, MO, cat. D2650), except for the platinum compounds which were prepared in saline (Quality Biological, Gaithersburg, MD, cat. 114-055-101), at 800-fold the tested concentration and stored at -70 degrees C prior to their use. All drugs and investigational agents were tested over a range starting from a high concentration at or near the clinical Cmax and decreasing in half-log increments. If the clinical Cmax for an agent had not been determined, the highest concentration tested was 10 microM, except for SN-38, which was tested at a high concentration of 1 microM.
Cell Culture. All cells were maintained in an incubator at 37 degrees C and 5% CO2 with 95% humidity. The PDC lines were cultured according to standard operating procedures established by the NCI PDMR (https://pdmr.cancer.gov). Table 3 of the manuscript, lists the cell lines along with the number of the three cell types plated to form the mct-spheroids and media for tumor cell growth. After thawing, all PDC lines, except 997537-175-T-J1-PDC and 415267-285-R-J2-PDC, were cultured in Matrigel-coated flasks prepared with a working solution of 1X Ham's F-12 nutrient mix, without supplementation (Thermo Fisher Scientific, cat. 11765054), 100 U/mL penicillin-streptomycin (Thermo Fisher Scientific, cat. 15140122), and 2.5% Matrigel (Corning Inc., Corning, NY, cat. 354248) for the first three passages. The two PDC lines 997537-175-T-J1-PDC and 415267-285-R-J2-PDC were cultured on uncoated flasks. The 857933-349-R-J2-PDC line was cultured in 6C/Colon 1B media containing advanced DMEM/F-12 (Thermo Fisher Scientific, cat. 12634028), 10 mM HEPES (Thermo Fisher Scientific, cat. 15630080), 1X GlutaMAX supplement (Thermo Fisher Scientific, cat. 35050061), 0.1 mg/mL primocin (InvivoGen, San Diego, CA, cat. ant-pm-2), 10% defined fetal bovine serum, heat inactivated (HyClone Laboratories Inc., Logan, UT, cat. SH30070.03HI), 50% L-WRN conditioned media (ATCC, cat. CRL-3276), 1.25 mM N-Acetyl-L-cysteine (Sigma-Aldrich, cat. A9165), 10 mM nicotinamide (Sigma-Aldrich, cat. N0636), 1X B-27 supplement (Thermo Fisher Scientific, cat. 17504044), 1X N-2 supplement (Thermo Fisher Scientific, cat. […]
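Further: spheroids exposed to compounds for seven days before readout.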

CCc1cc2c(N3CCc4c(cc(Cn5ccnc5)cc4-c4cn(C)nc4C(F)(F)F)C3=O)ccnc2c(OC)n1 + COC1C(OC(N)=O)C(O)C(Oc2ccc3c(O)c(NC(=O)c4ccc(O)c(CC=C(C)C)c4)c(=O)oc3c2C)OC1(C)C
> 10 µM: IC50 (curve of first compound, second compound 0.0316 µM) | IC50 (curve of first compound, second compound 0.1 µM) | IC50 (curve of first compound, second compound 0.316 µM) | IC50 (curve of first compound, second compound 1 µM) | IC50 (curve of first compound, second compound 3.16 µM) | IC50 (curve of first compound, second compound 10 µM)
inactive: viability, T/C (second compound 0.0316 µM, first compound 0.0316 µM) 103% | viability, T/C (second compound 0.0316 µM, first compound 0.1 µM) 103% | viability, T/C (second compound 0.0316 µM, first compound 0.316 µM) 97.7% | viability, T/C (second compound 0.0316 µM, first compound 1 µM) 104% | viability, T/C (second compound 0.0316 µM, first compound 3.16 µM) 78.8% | viability, T/C (second compound 0.0316 µM, first compound 10 µM) 57.6% | viability, T/C (second compound 0.1 µM, first compound 0.0316 µM) 97.8% | viability, T/C (second compound 0.1 µM, first compound 0.1 µM) 93.9% | viability, T/C (second compound 0.1 µM, first compound 0.316 µM) 101% | viability, T/C (second compound 0.1 µM, first compound 1 µM) 92.5% | viability, T/C (second compound 0.1 µM, first compound 3.16 µM) 72.7% | viability, T/C (second compound 0.1 µM, first compound 10 µM) 58.6% | viability, T/C (second compound 0.316 µM, first compound 0.0316 µM) 106% | viability, T/C (second compound 0.316 µM, first compound 0.1 µM) 93.4% | viability, T/C (second compound 0.316 µM, first compound 0.316 µM) 115% | viability, T/C (second compound 0.316 µM, first compound 1 µM) 99.9% | viability, T/C (second compound 0.316 µM, first compound 3.16 µM) 78.2% | viability, T/C (second compound 0.316 µM, first compound 10 µM) 53.5% | viability, T/C (second compound 1 µM, first compound 0.0316 µM) 102% | viability, T/C (second compound 1 µM, first compound 0.1 µM) 93.1% | viability, T/C (second compound 1 µM, first compound 0.316 µM) 115% | viability, T/C (second compound 1 µM, first compound 1 µM) 100% | viability, T/C (second compound 1 µM, first compound 3.16 µM) 82.4% | viability, T/C (second compound 1 µM, first compound 10 µM) 57.1% | viability, T/C (second compound 3.16 µM, first compound 0.0316 µM) 94.6% | viability, T/C (second compound 3.16 µM, first compound 0.1 µM) 95.3% | viability, T/C (second compound 3.16 µM, first compound 0.316 µM) 106% | viability, T/C (second compound 3.16 µM, first compound 1 µM) 104% | viability, T/C (second compound 3.16 µM, first compound 3.16 µM) 79.2% | viability, T/C (second compound 3.16 µM, first compound 10 µM) 62.6% | viability, T/C (second compound 10 µM, first compound 0.0316 µM) 103% | viability, T/C (second compound 10 µM, first compound 0.1 µM) 93.4% | viability, T/C (second compound 10 µM, first compound 0.316 µM) 110% | viability, T/C (second compound 10 µM, first compound 1 µM) 106% | viability, T/C (second compound 10 µM, first compound 3.16 µM) 75.3% | viability, T/C (second compound 10 µM, first compound 10 µM) 57.8%

O=c1[nH]cc(F)c(=O)[nH]1
> 10 µM: IC50 (curve of compound)
inactive: viability, T/C (compound 0.0316 µM) 108% and 102% and 103% | viability, T/C (compound 0.1 µM) 89.4% and 107% and 89.8% | viability, T/C (compound 0.316 µM) 109% and 106% and 81.9% | viability, T/C (compound 1 µM) 88.9% and 89.1% and 97.6% | viability, T/C (compound 3.16 µM) 79.5% and 85.3% and 88.3% | viability, T/C (compound 10 µM) 65.1% and 78.3% and 64.8%

CCc1cc2c(N3CCc4c(cc(Cn5ccnc5)cc4-c4cn(C)nc4C(F)(F)F)C3=O)ccnc2c(OC)n1
> 10 µM and 8.89 µM: IC50 (curve of compound)
inactive: viability, T/C (compound 0.0316 µM) 105% and 80.5% and 91.8% | viability, T/C (compound 0.1 µM) 94% and 89.7% and 94.5% | viability, T/C (compound 0.316 µM) 102% and 76.2% and 108% | viability, T/C (compound 1 µM) 107% and 92.5% and 85.3% | viability, T/C (compound 3.16 µM) 80.3% and 74.5% and 92% | viability, T/C (compound 10 µM) 51% and 47.2% and 50.3%
